{
  "source": "paper PMC7835237",
  "about": "“Dual mechanism β-amino acid polymers promoting cell adhesion” (Nature Communications, 2021)",
  "key": {"[1]": {"test_system": "MC3T3-E1 preosteoblast cells", "assay": "Cell spreading area on modified surfaces (immunofluorescence analysis of cell morphology)", "type": "cell-based, mouse", "description": "The degree of cell spreading on a functionalized glass slide was measured by immunofluorescence analysis. After culture medium was removed, the slide was washed with PBS and then cells on the slide were fixed with 4% paraformaldehyde for 20 min. The slide was washed with PBS thrice and incubated for 5 min with 0.4% triton-X in PBS. Subsequently, the slide was washed with PBS thrice, followed by blocking with 3% bovine serum albumin (BSA) in PBS for 1 h at rt and then incubated with Alexa Fluor-555-conjugated anti-vinculin antibody (1:300 in PBS) overnight at 4 °C. The slide was washed with PBS thrice and incubated for 2 h with FITC-phalloidin (1:200 in PBS) and 4′-6-diamidino-2-phenylindole (DAPI) (5 μg/mL) for 10 min. The slide was washed with PBS thrice and its fluorescent images were collected on a confocal microscope (Nikon A1R, Japan)."}, "[2]": {"test_system": "MC3T3-E1 preosteoblast cells", "assay": "Integrin αvβ3 to block RGD, cell adhesion", "type": "cell-based, mouse", "design": "unit not given here", "conditions": "for Cell density (figure 5g) / Cell spreading area (figure 5f): - αvβ3: serum-incubated surface without integrin αvβ3, 2 h after seeding; for Supplementary Figure8, cell adhesion on modified surface: - αvβ3", "description": "An aliquot of 10 μL α-MEM medium containing 10% FBS was added to each well (formed by a 50-well coverslip on the top of a glass slide) and the slide was incubated in a humidified atmosphere at 37 °C for 2 h[24]. The slide was washed with PBS and incubated with integrin αvβ3 (10 µg/mL in PBS) at 37 °C for 1 h. Then cells at a concentration of 1.5 × 10^5 cells/mL in a serum-free medium were added to each individual well, having bottom surface modified with DM50CO50 or RGD peptide. After the slide was incubated at 37 °C for 2 h, cells in each well were stained with a live/dead staining solution and the fluorescent images were captured under a microscope (Nikon Eclipse Ti-S, Japan) at eight different locations in each well. The collected images were analyzed using the Image-pro plus software."}, "[3]": {"assay": "Water contact angle of modified surfaces", "type": "physicochemical", "conditions": "modified glass surface, Millipore water drops", "description": "The water contact angles of bare glass, OEG8, RGD, and DM50CO50-modified surfaces were measured with a contact angle meter (JC2000D2) from Shanghai Zhongchen Digital Technology Apparatus Co., Ltd. Liquid drops (Millipore water) were delivered to the surface using a microsyringe."}},
  "data": [
    {"substance": "RGDSPC [cell adhesion gold standard RGD peptide (RGDSPC), attached to surface]", "values": [
      {"measurement": "Cell area of preosteoblast cells", "setting": "[1]; cultured on modified surface for 3 h, replicate 1", "value": 3956},
      {"measurement": "Cell area of preosteoblast cells", "setting": "[1]; cultured on modified surface for 3 h, replicate 2", "value": 3895},
      {"measurement": "Cell area of preosteoblast cells", "setting": "[1]; cultured on modified surface for 3 h, replicate 3", "value": 3549},
      {"measurement": "Cell area of preosteoblast cells", "setting": "[1]; cultured on modified surface for 24 h, replicate 1", "value": 4800},
      {"measurement": "Cell area of preosteoblast cells", "setting": "[1]; cultured on modified surface for 24 h, replicate 2", "value": 4752},
      {"measurement": "Cell area of preosteoblast cells", "setting": "[1]; cultured on modified surface for 24 h, replicate 3", "value": 4625},
      {"measurement": "Cell density (figure 5g)", "setting": "[2]; value 1 of n = 9", "value": 80},
      {"measurement": "Cell spreading area (figure 5f)", "setting": "[2]; value 1 of n = 9", "value": 3308.7},
      {"measurement": "Cell density (figure 5g)", "setting": "[2]; value 2 of n = 9", "value": 69},
      {"measurement": "Cell spreading area (figure 5f)", "setting": "[2]; value 2 of n = 9", "value": 3551.3},
      {"measurement": "Cell density (figure 5g)", "setting": "[2]; value 3 of n = 9", "value": 74},
      {"measurement": "Cell spreading area (figure 5f)", "setting": "[2]; value 3 of n = 9", "value": 2958.5},
      {"measurement": "Cell density (figure 5g)", "setting": "[2]; value 4 of n = 9", "value": 75},
      {"measurement": "Cell spreading area (figure 5f)", "setting": "[2]; value 4 of n = 9", "value": 3300.7},
      {"measurement": "Cell density (figure 5g)", "setting": "[2]; value 5 of n = 9", "value": 69},
      {"measurement": "Cell spreading area (figure 5f)", "setting": "[2]; value 5 of n = 9", "value": 3020},
      {"measurement": "Cell density (figure 5g)", "setting": "[2]; value 6 of n = 9", "value": 79},
      {"measurement": "Cell spreading area (figure 5f)", "setting": "[2]; value 6 of n = 9", "value": 2866.3},
      {"measurement": "Cell density (figure 5g)", "setting": "[2]; value 7 of n = 9", "value": 74},
      {"measurement": "Cell spreading area (figure 5f)", "setting": "[2]; value 7 of n = 9", "value": 2910.3},
      {"measurement": "Cell density (figure 5g)", "setting": "[2]; value 8 of n = 9", "value": 73},
      {"measurement": "Cell spreading area (figure 5f)", "setting": "[2]; value 8 of n = 9", "value": 3174.3},
      {"measurement": "Cell density (figure 5g)", "setting": "[2]; value 9 of n = 9", "value": 70},
      {"measurement": "Cell spreading area (figure 5f)", "setting": "[2]; value 9 of n = 9", "value": 3494.7},
      {"measurement": "Supplementary Figure8, cell adhesion on modified surface", "setting": "[2]; replicate 1", "value": 0.61},
      {"measurement": "Supplementary Figure8, cell adhesion on modified surface", "setting": "[2]; replicate 2", "value": 0.2888},
      {"measurement": "Supplementary Figure8, cell adhesion on modified surface", "setting": "[2]; replicate 3", "value": 0.3748},
      {"measurement": "Water contact angle", "setting": "[3]", "value": 41, "unit": "°"}
    ]}
  ]
}
